In patent publication US12575768B2, “Analyte sensor antimicrobial configurations and adhesives” (Abbott Diabetes Care, Inc., priority 2018, dated 2026):

Test system: gram-positive bacteria strains associated with common skin flora and wound infection
Test: modified Kirby-Bauer disk diffusion assay, overall conclusion
Format: cell-based
Conditions: conclusion from zone of inhibition measurements of Table 1
Method: Example 3: […] Testing of Silver-Based Antimicrobial Quality. In this example, sensors membranes comprising the silver-based antimicrobial compounds of Example 2 (tested in quadruplicate for each of the sensors in Example 2) and the Control of Example 2 were evaluated […] against a variety of gram-positive bacteria strains associated with common skin flora and wound infection, and which were nosocomial-derived using a modified Kirby-Bauer disk diffusion assay for antibiotic susceptibility testing. The bacteria used for evaluation were Staphylococcus aureus (MRSA) (ATCC #33591), Staphylococcus epidermidis (ATCC #12228), Enterococcus faecalis (ATCC #4082), and Streptococcus pyogenes (ATCC #19615). Each were cultured on Tryptic Soy Agar, except for S. pyogenes, which were cultured on Blood Agar.

SMILES	antimicrobial properties (in words)
[Ag][I] [silver iodide]	demonstrate antimicrobial properties
[Cl][Ag] [silver chloride]	demonstrate antimicrobial properties
